The structures appear in SMILES notation. Like-named read-outs stand apart in the source and are kept apart here. Where a SMILES comes first, the peptide text is derived from it. Bridges are numbered along the chain shown (N, C = ends).

In assay [1] the test system is uPA activation by matriptase-1 on the surface of PC-3 cells. The assay can be described thus: Cell inhibition assay: uPA activation by matriptase-1 on the surface of PC-3 cells. The assay is classed as cell-based, human. The method, then:
Human prostate cancer cells (PC-3, Merck KGaA) were cultured in DMEM medium with 10% FCS at 37°C and 5% CO2, washed with cation-free PBS and harvested by scraping. 1×10^5 cells were incubated in presence of 250 µM Bz-β-Ala-Gly-Arg-pNA·AcOH (American Diagnostica), which is a specific […] of urokinase, and the inhibitor of interest in defined dilutions overnight. Product formation was monitored at 405 nm before and after incubation in a microplate reader. IC50 was calculated by non-linear regression using SigmaPlot 11.
Urokinase-type plasminogen activator (uPA) causes the degradation of the extracellular matrix and plays a critical role in tumor invasion and metastasis, [73]. It was shown that activation of receptor-bound pro-uPA is affected by matriptase-1, which results in a decreased ability of uPAexpressing tumor cells to invade an extracellular matrix layer upon inhibition of membrane-bound matriptase-1 [72].
For the indirect determination of the IC50 of SOTI Var. 1 and MCoTI Var. 4 on the surface of these cancer cells, the turnover of an uPA substrate was monitored. Pro-uPA is activated through non-inhibited matriptase-1 and substrate turnover was measured and compared to the previously reported small molecule inhibitor S1 of matriptase-1 (Figure 4). In this experimental setting, the MCoTI-based inhibitor Var. […] 4 in this assay.
Figure 4 Inhibition assay of uPA activation by matriptase-1 on the surface of PC-3 cells. Depicted is the logarithmic inhibitor concentration against the absorption at 405 TEXT PRINTED IN THE PICTURE: MCoTI Var.

Another assay addresses thrombin. The assay can be described thus: Selectivity assay, thrombin inhibition. The assay is classed as biochemical. The conditions noted are these: duplicates; 5 nM protease; no inhibition observed at 10 µM inhibitor concentration.
Assay [2] has as its target T1, Bovine pancreatic trypsin (Bos taurus, UniProt P00760).
T1 construct: purchased Sigma-Aldrich
T1 sequence (P00760 24-246): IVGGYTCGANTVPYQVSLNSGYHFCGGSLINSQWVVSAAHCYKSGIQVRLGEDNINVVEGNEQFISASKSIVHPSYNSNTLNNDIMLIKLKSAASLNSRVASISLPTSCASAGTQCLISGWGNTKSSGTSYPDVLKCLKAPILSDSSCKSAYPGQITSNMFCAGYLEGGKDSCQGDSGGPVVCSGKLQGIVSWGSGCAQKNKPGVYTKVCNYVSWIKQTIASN
The assay can be described thus: Trypsin inhibition assay (substrate-independent Ki). The conditions noted are these: substrate-independent Ki from Ki app (Morrison equation) and Km; 250 µM substrate; preincubation 30 min RT; read over 30 min; triplicate. In kind it is biochemical.
Procedure: (§5) Apparent inhibition constants (Ki ^app) were calculated by fitting the Morrison equation (1) for tight-binding inhibitors to the relative reaction velocity using non-linear regression (Marquardt-Levenberg algorithm, Sigma Plot 11) [63].

The target in the next assay is Hepsin (Homo sapiens, UniProt P05981). The assay can be described thus: biochemical. The method, then:
(§1) Human matriptase-1 was produced recombinantly, autocatalytically activated and purified as previously reported, [49], [51], [60]. Bovine pancreatic trypsin, thrombin and uPA were purchased from Sigma-Aldrich and Hepsin from R&D Systems.
(§2) Measurements were carried out in triplicate using a Tecan Genios ELISA reader. The normalized residual proteolytic activity (v/v0) of proteases was determined using substrates Boc-QAR-pNA (250 µM, (pNA stands for para-nitro aniline), Boc-QAR-AMC (250 µM, AMC stands for amino-methyl coumarin) or Spectrozym tPA (250 µM, American Diagnostica, CH3SO2-D-CHT-Gly-Arg-pNA AcOH). Product formation was monitored after preincubation (30 min, RT) with inhibitor at different concentrations over 30 min by measuring the absorbance at 405 nm for pNA substrates or the fluorescence emission for AMC substrates (ex. 360 nm, em. 465 nm), respectively. Selectivity data were carried out in duplicates with final protease concentrations of uPA and thrombin of 5 nM. In case of hepsin 50 mM Tris/HCl pH 9.0 was used as assay buffer.
(§3) Apparent inhibition constants (Ki ^app) were calculated by fitting the Morrison equation (1) for tight-binding inhibitors to the relative reaction velocity using non-linear regression (Marquardt-Levenberg algorithm, Sigma Plot 11). [drawing 1] (1) [drawing 2] (2)
(§4) Substrate-independent inhibition constants Ki were calculated from Ki ^app and Km of the enzyme according to (2). The Michaelis-Menten constant Km for the substrates and proteases were determined previously, [64].

For the next assay, the target named is uPA (Homo sapiens, UniProt P00749). The assay can be described thus: biochemical. As to the method: as §1, §2, §3, §4
The test system of assay [3] is Human matriptase-1. The assay can be described thus: Matriptase-1 inhibition assay (Ki / Ki app). In kind it is biochemical. The conditions noted are these: ratio of Ki values of Table 1.
Procedure: (§6) Human matriptase-1 was produced recombinantly, autocatalytically activated and purified as previously reported [35], [49], [51], [60].
as §5
The target in assay [4] is T2, Human matriptase-1 (Homo sapiens, UniProt Q9Y5Y6).
T2 construct: made in house
T2 sequence (Q9Y5Y6 615-855 limits assumed): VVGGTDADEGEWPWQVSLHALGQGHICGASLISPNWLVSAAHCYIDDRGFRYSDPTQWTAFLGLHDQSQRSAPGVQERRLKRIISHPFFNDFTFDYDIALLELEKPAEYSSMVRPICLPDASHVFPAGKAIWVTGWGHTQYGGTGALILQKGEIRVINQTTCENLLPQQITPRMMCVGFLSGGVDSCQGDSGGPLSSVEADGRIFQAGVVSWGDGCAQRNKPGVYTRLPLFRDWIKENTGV
As to the kind of experiment: Matriptase-1 inhibition assay (Ki / Ki app). The assay is classed as biochemical. Particulars: substrate-independent Ki from Ki app (Morrison equation) and Km; 250 µM substrate; preincubation 30 min RT; read over 30 min; triplicate; read-out: Ki (Matriptase-1).
Procedure: as §6, §5

Sequence of Hepsin (P05981 whole entry): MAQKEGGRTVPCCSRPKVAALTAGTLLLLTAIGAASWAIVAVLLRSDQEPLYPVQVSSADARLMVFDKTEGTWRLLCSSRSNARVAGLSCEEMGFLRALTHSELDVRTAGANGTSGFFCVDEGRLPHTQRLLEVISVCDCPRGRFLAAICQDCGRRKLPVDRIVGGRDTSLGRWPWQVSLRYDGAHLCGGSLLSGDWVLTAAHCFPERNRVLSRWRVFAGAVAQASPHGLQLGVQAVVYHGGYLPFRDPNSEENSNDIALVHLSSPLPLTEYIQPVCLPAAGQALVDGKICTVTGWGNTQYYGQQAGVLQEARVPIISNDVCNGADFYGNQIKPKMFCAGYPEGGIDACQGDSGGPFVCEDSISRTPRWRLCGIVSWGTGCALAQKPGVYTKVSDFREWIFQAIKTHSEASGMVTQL
Procedure for thrombin: as §5

Broadly, the IC50 is the concentration that gives 50% inhibition. In the case of `CC[C@H](C)[C@@H]1NC(=O)[C@@H]2CSSC[C@H](NC(=O)[C@@H](NC(=O)CNC(=O)[C@@H](N)Cc3c[nH]c4ccccc34)C(C)C)C(=O)N3CCC[C@H]3C(=O)N[C@@H](CCCCN)C(=O)N[C@@H](C(C)C)C(=O)N[C@@H](CC(C)C)C(=O)N[C@@H](CCCNC(=N)N)C(=O)N[C@@H](CC(N)=O)C(=O)N[C@H]3CSSC[C@H](NC1=O)C(=O)N[C@@H](CC(C)C)C(=O)NCC(=O)N[C@@H](CC(N)=O)C(=O)NCC(=O)N[C@@H](Cc1ccc(O)cc1)C(=O)N[C@H](C(=O)NCC(N)=O)CSSC[C@H](NC(=O)[C@H](CC(=O)O)NC(=O)[C@H](CO)NC(=O)[C@H](CC(=O)O)NC(=O)[C@H](CCCNC(=N)N)NC(=O)[C@H](CCCNC(=N)N)NC3=O)C(=O)N1CCC[C@H]1C(=O)NCC(=O)N[C@@H](C)C(=O)N2` [MCoTI Var. 4] (H-WGVCPKVLRNCRRDSDCPGACICLGNGYCG-NH2; disulfide 4-21, 11-23, 17-29), in assay [1] (1×10^5 PC-3 cells, 250 µM Bz-β-Ala-Gly-Arg-pNA, overnight, absorbance 405 nm, read-out: IC50 (uPA substrate turnover on PC-3 cells)), the IC50 amounted to 0.213 µM. Further, in assay [1] (PC-3 cells, IC50 comparison (Figure 4)), the “potency relative to recently described peptidomimetic small-molecule inhibitors” value stood at 10 fold. Further, the Ki on thrombin is more than 10 µM; in assay [2], 0.0358 ± 0.0047 µM; on Hepsin, more than 10 µM; on Hepsin (read-out: Ki (Hepsin), duplicates, 50 mM Tris/HCl pH 9.0, no inhibition observed at 10 µM inhibitor concentration), more than 10 µM; at uPA, more than 10 µM; at Human matriptase-1 [4], 0.00083 ± 0.00014 µM. Moreover, the “inhibitory activity for matriptase-1 relative to trypsin” value in the assay with Human matriptase-1 [3] is “approximately fortyfold higher”.

(Values after article PMC3795654, “Combinatorial Optimization of Cystine-Knot Peptides towards High-Affinity Inhibitors of Human Matriptase-1” (PLoS ONE, 2013).)
